Consider one compound from PMC7272432, “Amyloid Aggregation of Insulin: An Interaction Study of Green Tea Constituents” (Scientific Reports, 2020).

The experiment concerns the target T1, human insulin (Homo sapiens, UniProt P01308).
T1 construct: gene INS; Human insulin (I2643, recombinant, expressed in yeast); 51 amino acids divided into two chains
The experiment is described as follows: ThT fluorescence assay of insulin amyloid aggregation ([…] insulin, pH […] °C), supported by kinetics, AFM and ATR-FTIR. The experiment is classed as biochemical.

Structures are written as SMILES.

T1 sequence (P01308 25-54): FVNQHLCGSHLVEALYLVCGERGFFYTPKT
T1 sequence (P01308 90-110): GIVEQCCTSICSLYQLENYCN

`O=C(O[C@@H]1Cc2c(O)cc(O)cc2O[C@@H]1c1cc(O)c(O)c(O)c1)c1cc(O)c(O)c(O)c1` [EGCG, (-)-epigallocatechin gallate] registered a concentration for half-maximal inhibition (IC50) of 476 ± 32.5 µM.

Usually IC50 stands for the point on the concentration scale where inhibition reaches its midpoint.
